Laboratory results published in patent US20220364184A1, “COMPOSITIONS AND METHODS FOR TREATMENT OF A POOR PROGNOSIS SUBTYPE OF COLORECTAL CANCER” (DANA-FARBER CANCER INSTITUTE, INC., priority 2019, published 2022).
Entries after “also recorded” stand apart in the source; their conditions may differ.

Tests used:
[1] = tested on: RKO cells; assay: Wound healing (scratch) assay with calcium wave imaging; type: cell-based, human; conditions: for display of primary and secondary calcium waves after scratching: FIG. 19E-F, verapamil 500 nM
Method: Wild-type or BCL9 knockout cells were grown in 6-well plates or Nunc™ Glass Bottom Dishes (150680, ThermoFisher®) for 24 hrs until cells reached 90% confluency. A 1 ml pipette tip was used to scratch the monolayer of cells across the center of each well. The cells were imaged at 0 and 24 hours after scratching. To investigate the effect of BCL9 on calcium waves (FIG. 5H), cells were cultured in glass-bottomed 96-well plates for 24 hrs until they reached 90% confluency. […] A 200 μl pipette tip was used to scratch the cell monolayer from the top left to the bottom right corner of the well. At various times after the scratch was made, cells were fixed with 4% paraformaldehyde for 15 minutes at room temperature. Immunofluorescence was subsequently used to identify the location of BCL9 (see immunofluorescence method section for more detail). The wound edge in the center of the well was defined as “adjacent” and the area in the top right corner was defined as “distance” (FIG. 4H).
To trace the calcium transient in real time, GCaMP5G (#31788, Addgene®) was transfected into wild-type or BCL9 knockout RKO and Colo320 cell lines. 2 mg/ml neomycin was added to the cell culture medium 48 hrs after transfection to generate cell lines with stable GCaMP5 expression and removed one week prior to the initiation of experiment. Calcium transients were captured by live-cell imaging using a confocal microscope. […] Calcium measurements were normalized to background fluorescence and the relative change in calcium (F(t)) over time was calculated by the formula: […]
where F0 was defined as the average intensity of the 20% lowest grey values in a region of interest (ROI), F was defined as the normalized grey values of ROI in time point t. Global synchronicity was calculated by cross correlation method in FluoroSNNAP (seas.upenn.edu/˜molneuro/fluorosnnap.html). The frequency spectrum was calculated by fast Fourier transform (Uhlen, P. (2004). Sci. STKE 2004, p 115), the time difference between each sample is 0.5 s.

[2] = tested on: RKO, Colo320, SW620, LS174T, DLD-1 cells; assay: Cell viability assay of CRC cell lines; conditions: Colo320, and SW620 more than LS174T or DLD-1 cells, increased concentrations, FIG. 20C
[3] = tested on: RKO cells; assay: Live-cell calcium imaging of spontaneous calcium transients (GCaMP5); type: cell-based, human; conditions: for spontaneous calcium transients: FIG. 4C; for propagation of calcium transients: FIG. 5E
Method: 2 mg/ml neomycin was added to the cell culture medium 48 hrs after transfection to generate cell lines with stable GCaMP5 expression and removed one week prior to the initiation of experiment. Calcium transients were captured by live-cell imaging using a confocal microscope. Time lapse imaging was setup so that an image was captured every 0.5 s for 30 minutes, with an exposure time of 0.5 s. Calcium measurements were normalized to background fluorescence and the relative change in calcium (F(t)) over time was calculated by the formula: […]
where F0 was defined as the average intensity of the 20% lowest grey values in a region of interest (ROI), F was defined as the normalized grey values of ROI in time point t. Global synchronicity was calculated by cross correlation method in FluoroSNNAP (seas.upenn.edu/˜molneuro/fluorosnnap.html).

[4] = tested on: RKO cells; assay: In vivo mouse xenograft model (RKO-luciferase, intraperitoneal)
Method: A total of 4×10^6 wild-type or BCL9 knockout RKO cells stably transduced with a reporter expressing Luciferase were injected intraperitoneally into CB17.Cg-PrkdcscidLystbg-J/Crl (Beige) mice (n=7 per group), and tumor burden was monitored by whole-body imaging using Xenogen system every week for 4 weeks, starting one day after injection of cells. After last imaging, all mice were euthanized and all tumor nodules identified in the peritoneal cavity were dissected and processed for histological and immunohistochemical analysis. To quantify β-catenin and Ki-67 stains serial consecutive sections were scanned using Vectra 2 Intelligent Slide Analysis system; percentage of positive cells (Ki-67, CD163, CD31, or αSMA) or areas (β-catenin) were assessed using inform Cell Analysis software (PerkinElmer®). P-values were calculated using unpaired Student's t-test. Propranolol hydrochloride (Millapore-Sigma®) was added to the drinking water at a concentration of 0.5 g/L on the injection day. Drug solution was renewed every 2 days.
TMA sections (from Oncology Pathology, Dana Farber Cancer Institute) were pre-heated at 65 degrees for 20 mins and then deparaffined by performing the following washing steps: xylene 3×5 mins, 100% ethanol 5 mins, 95% ethanol 5 mins, 75% ethanol 5 mins, 50% ethanol 5 mins, 25% ethanol 5 mins, and rinsed by cold water. Sections were subsequently heated in a microwave with antigen retrieval buffer (10 mM Tris Base, 1 mM EDTA Solution, 0.05% Tween 20, pH 9.0). Sections were washed twice with TBS plus 0.5% Triton X-100 (v/v) and blocked with 5% BSA for 1 hr at room temperature. Sections were incubated overnight with the following antibodies at 4 degrees: BCL9 (ab37305, Abcam®), FAP (AF3715, R&D), β-catenin (610154, BD Transduction Laboratories), SYP (PA0299, Lecia), PDGFB (ab23914, Abcam®), C3 (HPA003563, Millapore-Sigma®), RGS4 (sc-398348, Santa Cruz®), CD163 (182422, Abcam®), CD31 (77699, Cell Signaling®), αSMA (19245, Cell Signaling®), or Axin2 (#2151, Cell Signaling®). The sections were washed three times before incubation with secondary antibody for 2 hours at room temperature. The sections were then washed three times before signal amplification with HRP polymer or fluorescence. ImageJ2 software was used to carry out semi-quantitative analysis of the staining intensities, which ranged from 0 (negative) to 3 (strong staining). Subsequently the H-score was calculated using the following formula;

[5] = tested on: RGS4, CACNA2D1, ADRB1 mRNA; assay: mRNA expression by RNA-seq / qRT-PCR; type: cell-based, human; conditions: both wild-type and BCL9 knockout RKO cells, qRT-PCR, FIG. 17A
Method: RNA was extracted from wild type and BCL9 knockout RKO cells with or without Poly I:C treatment (1 μg/ml) and subsequently purified using the TURBO DNA-free™ Kit (AM1907, invitrogen) to remove any residual DNA. An RNA library was prepared using the ribosome RNA removing method and sequenced with a 150 bp paired-end protocol in the Center for Cancer Computational Biology at the Dana Farber Cancer Institute (PRJNA554110). After quality control (QC) analysis was performed using fastQC, the first 10 bases were trimmed for each read. STAR software was used to map the readings to the human genome (hg19) and duplicates were removed using Picard. HTSeq was used to evaluate the gene expression levels by the count number for each gene and were subsequently annotated using the Ensemble database. Gene differential analysis was then applied to the expression profiling table using R package edgeR. For further analysis, the difference in exon usage between different conditions was calculated and R package DEXSeq was used to find differences between them.

[6] = molecular target: T1, B-cell lymphoma 9 (BCL9) (human, UniProt O00512 1-1426); assay: co-IP with anti-β-catenin antibody, untreated and poly I:C treated Colo320 cells
T1 construct: Endogenous protein in nuclear lysates of human CRC cell lines (RKO, Colo320, SW620, LS174T, DLD-1)
T1 sequence: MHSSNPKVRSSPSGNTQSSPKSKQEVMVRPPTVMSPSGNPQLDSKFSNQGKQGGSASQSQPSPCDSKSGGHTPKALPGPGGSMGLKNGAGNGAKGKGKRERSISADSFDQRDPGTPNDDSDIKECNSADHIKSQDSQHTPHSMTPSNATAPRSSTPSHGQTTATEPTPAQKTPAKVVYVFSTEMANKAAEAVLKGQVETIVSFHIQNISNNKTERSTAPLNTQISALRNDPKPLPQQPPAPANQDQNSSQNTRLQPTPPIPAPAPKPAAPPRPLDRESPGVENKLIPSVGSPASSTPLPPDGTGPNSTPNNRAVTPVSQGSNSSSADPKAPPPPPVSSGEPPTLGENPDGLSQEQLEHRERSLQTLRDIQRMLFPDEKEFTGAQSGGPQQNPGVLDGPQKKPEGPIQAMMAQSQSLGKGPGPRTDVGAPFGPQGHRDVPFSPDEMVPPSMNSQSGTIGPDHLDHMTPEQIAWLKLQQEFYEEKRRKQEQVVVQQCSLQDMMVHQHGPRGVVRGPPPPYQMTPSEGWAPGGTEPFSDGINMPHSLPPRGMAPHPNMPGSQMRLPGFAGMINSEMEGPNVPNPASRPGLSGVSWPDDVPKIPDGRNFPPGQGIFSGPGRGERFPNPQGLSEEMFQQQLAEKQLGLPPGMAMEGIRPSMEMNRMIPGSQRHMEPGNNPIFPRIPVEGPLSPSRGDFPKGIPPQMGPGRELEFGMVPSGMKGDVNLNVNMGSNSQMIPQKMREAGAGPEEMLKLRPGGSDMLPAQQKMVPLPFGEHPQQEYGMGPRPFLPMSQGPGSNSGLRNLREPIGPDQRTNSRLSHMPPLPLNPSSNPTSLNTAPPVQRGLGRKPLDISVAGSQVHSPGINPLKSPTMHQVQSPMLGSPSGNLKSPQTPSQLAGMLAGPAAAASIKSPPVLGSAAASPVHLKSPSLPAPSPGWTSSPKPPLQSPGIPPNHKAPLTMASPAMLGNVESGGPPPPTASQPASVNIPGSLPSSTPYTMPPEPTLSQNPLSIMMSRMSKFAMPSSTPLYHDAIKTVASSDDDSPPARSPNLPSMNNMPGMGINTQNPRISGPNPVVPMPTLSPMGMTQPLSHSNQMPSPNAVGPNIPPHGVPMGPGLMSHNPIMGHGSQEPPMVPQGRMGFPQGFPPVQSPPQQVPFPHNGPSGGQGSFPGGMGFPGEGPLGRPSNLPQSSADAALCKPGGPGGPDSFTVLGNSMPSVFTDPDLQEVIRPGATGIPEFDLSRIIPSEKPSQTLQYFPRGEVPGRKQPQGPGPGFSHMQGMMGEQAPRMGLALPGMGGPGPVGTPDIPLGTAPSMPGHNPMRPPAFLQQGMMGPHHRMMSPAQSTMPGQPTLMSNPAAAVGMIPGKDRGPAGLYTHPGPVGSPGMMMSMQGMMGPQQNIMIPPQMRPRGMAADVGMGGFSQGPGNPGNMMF

Molecule: COc1ccc(CCN(C)CCCC(C#N)(c2ccc(OC)c(OC)c2)C(C)C)cc1OC (stereo not drawn) [verapamil, Benzeneacetonitrile, α-[3-[[2-(3,4-dimethoxyphenyl)ethyl]methylamino]propyl]-3,4-dimethoxy-α-(1-methylethyl)]
- display of primary and secondary calcium waves after scratching [1]: disappeared; also recorded: blocked
- viability of CRC cell lines [2]: significantly reduced
- spontaneous calcium transients ([3]; RKO cells): disappeared

Molecule: CC(C)NCC(O)COc1cccc2ccccc12 (stereo not drawn) [propranolol, 2-propanol, 1-[(1-methylethyl)amino]-3-(1-naphthalenyloxy)]
- calcium transient activation after scratching ([1]; FIG. 5F): inhibited calcium transients only in a subset of cells; also recorded: very few of them were activated
- viability of CRC cell lines [2]: significantly reduced
- amplitude, frequency, and synchronicity of spontaneous calcium waves ([3]; RKO cells, FIG. 20B): reduced
- number of endothelial cells within tumor microenvironment (CD31) ([4]; RKO xenograft, FIG. 6H-I): marked reduction
- number of mouse derived M2 macrophages within tumor microenvironment (CD163) ([4]; RKO xenograft, FIG. 6H-I): marked reduction
- number of myofibroblast cells within tumor microenvironment (αSMA) ([4]; RKO xenograft, FIG. 6H-I): not
- expression of Axin2 in xenograft tumors ([4]; control vs treated groups): did not display differences
- mice that had died with extensive tumor burden ([4]; three weeks after RKO cell injection, 0.5 g/L in drinking water, n=7): none
- tumor burden (whole-body imaging) ([4]; three weeks post tumor injection, 0.5 g/L in drinking water): disappeared in most

Molecule: O=C(O)CN(CCN(CC(=O)O)CC(=O)O)CC(=O)O [EDTA, ethylene diamine tetra-acetic acid]
- display of primary and secondary calcium waves after scratching [1]: disappeared; also recorded: blocked
- spontaneous calcium transients ([3]; RKO cells): disappeared

Molecule: NCCc1ccc(O)c(O)c1 [dopamine]
- expression of RGS4 and CACNA2D1 mRNAs [5]: increased

Molecule: CC(C)(C)NCC(O)c1cc(O)cc(O)c1 (stereo not drawn) [Terbutaline]
- propagation of calcium transients ([3]; BCL9 knockout RKO cells): not
- propagation of calcium transients ([3]; wild-type RKO cells): induced

B1: β-catenin (other, UniProt P35222 2-781, looked up)
chain: ATQADLMELDMAMEPDRKAAVSHWQQQSYLDSGIHSGATTTAPSLSGKGNPEEEDVDTSQVLYEWEQGFSQSFTQEQVADIDGQYAMTRAQRVRAAMFPETLDEGMQIPSTQFDAAHPTNVQRLAEPSQMLKHAVVNLINYQDDAELATRAIPELTKLLNDEDQVVVNKAAVMVHQLSKKEASRHAIMRSPQMVSAIVRTMQNTNDVETARCTAGTLHNLSHHREGLLAIFKSGGIPALVKMLGSPVDSVLFYAITTLHNLLLHQEGAKMAVRLAGGLQKMVALLNKTNVKFLAITTDCLQILAYGNQESKLIILASGGPQALVNIMRTYTYEKLLWTTSRVLKVLSVCSSNKPAIVEAGGMQALGLHLTDPSQRLVQNCLWTLRNLSDAATKQEGMEGLLGTLVQLLGSDDINVVTCAAGILSNLTCNNYKNKMMVCQVGGIEALVRTVLRAGDREDITEPAICALRHLTSRHQEAEMAQNAVRLHYGLPVVVKLLHPPSHWPLIKATVGLIRNLALCPANHAPLREQGAIPRLVQLLVRAHQDTQRRTSMGGTQQQFVEGVRMEEIVEGCTGALHILARDVHNRIVIRGLNTIPLFVQLLYSPIENIQRVAAGVLCELAQDKEAAEAIEAEGATAPLTELLHSRNEGVATYAAAVLFRMSEDKPQDYKKRLSVELTSSLFRTEPMAWNETADLGLDIGAQGEPLGYRQDDPSYRSFHSGGYGQDALGMDPMMEHEMGGHHPGADYPVDGLPDLGHAQDLMDGLPPGDSNQLAWFDTDL
notes: Endogenous protein in cell lysates; co-IP with anti-β-catenin (9562L, Cell Signaling) or anti-BCL9 antibody; also called B-catenin
- binding result [6]: binds
